23 compounds from PubChem BioAssay AID256 (DTP/NCI, 2004) can be followed below.

This assay has as its system CD2F1 mice, L1210 leukemia ip, survival T/C. As to the kind of experiment: NCI In Vivo Anticancer Drug Screen. Data for tumor model L1210 Leukemia (intraperitoneal) in CD2F1 (CDF1) mice. The conditions noted are these: higher = longer survival. Put shortly: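 Ratio T/C, where T is the treated-group value and C the vehicle-dosed control value, from mice implanted with a transplantable tumor.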

[1] abbreviates: endpoint: mean survival time, dose: 100.0 mg/kg/injection, schedule: Q04DX003 (ip), vehicle: saline with Tween-80.
The mark [2] stands for this setting: endpoint: mean survival time, dose: 200.0 mg/kg/injection, schedule: Q04DX003 (ip), vehicle: saline with Tween-80.
The mark [3] stands for this setting: endpoint: mean survival time, dose: 400.0 mg/kg/injection, schedule: Q04DX003 (ip), vehicle: saline with Tween-80.
Where [4] appears, read: endpoint: mean survival time, dose: 25.0 mg/kg/injection, schedule: Q04DX003 (ip), vehicle: saline with Tween-80.
Setting [5] is: endpoint: mean survival time, dose: 100.0 mg/kg/injection, schedule: Q01DX009 (ip), vehicle: saline with Tween-80.
Setting [6] is: endpoint: mean survival time, dose: 50.0 mg/kg/injection, schedule: Q01DX009 (ip), vehicle: saline.
The mark [7] stands for this setting: endpoint: mean survival time, dose: 200.0 mg/kg/injection, schedule: Q01DX009 (ip), vehicle: saline.
The mark [8] stands for this setting: endpoint: mean survival time, dose: 200.0 mg/kg/injection, schedule: Q01DX009 (ip), vehicle: saline with Tween-80.
Setting [9] is: endpoint: mean survival time, dose: 400.0 mg/kg/injection, schedule: Q01DX009 (ip), vehicle: saline with Tween-80.
The mark [10] stands for this setting: endpoint: mean survival time, dose: 100.0 mg/kg/injection, schedule: Q01DX001 (ip), vehicle: saline with Tween-80.
[11] abbreviates: endpoint: mean survival time, dose: 200.0 mg/kg/injection, schedule: Q01DX001 (ip), vehicle: saline with Tween-80.
The mark [12] stands for this setting: endpoint: mean survival time, dose: 400.0 mg/kg/injection, schedule: Q01DX001 (ip), vehicle: saline with Tween-80.

Several values for one entry are separate records, joined by “and”; a condition that tells them apart may be missing. Equal entries are not always repeated. Inconclusive results and toxic doses are left out.

Consider `CCC(C=O)Cc1ccccc1` (configuration not stated), for which the T/C by setting is: under setting [1], 95 % of control; under setting [2], 94 % of control; under setting [3], 88 % of control.
Turning to `NNC(=O)c1ccc(Cl)cc1Cl`, the T/C (endpoint: mean survival time, dose: 6.25 mg/kg/injection, schedule: Q04DX003 (ip), vehicle: saline with Tween-80) was 97 % of control; the T/C (endpoint: mean survival time, dose: 12.5 mg/kg/injection, schedule: Q04DX003 (ip), vehicle: saline with Tween-80) was 101 % of control; the T/C under setting [4] was 103 % of control.
For `Cn1ccn(C2CCCCC2)c1=O`, the T/C reads like this: (endpoint: mean survival time, dose: 25.0 mg/kg/injection, schedule: Q01DX009 (ip), vehicle: saline with Tween-80) 98 % of control; under setting [4], 96 % of control; (endpoint: mean survival time, dose: 50.0 mg/kg/injection, schedule: Q01DX009 (ip), vehicle: saline with Tween-80) 101 % of control; (endpoint: mean survival time, dose: 50.0 mg/kg/injection, schedule: Q04DX003 (ip), vehicle: saline with Tween-80) 100 % of control; under setting [5], 95 % of control; under setting [1], 91 % of control and 93 % of control.
Consider `COc1cc(-c2ccc(-[n+]3nc(Cc4ccc5c(c4)OCO5)nn3-c3ccccc3)c(OC)c2)ccc1-[n+]1nc(Cc2ccc3c(c2)OCO3)nn1-c1ccccc1`, for which the T/C is 98 % of control under setting [1] and 97 % of control under setting [2].
As to `[N-]=[N+]=CC(=O)CCC(NC(=O)OCc1ccccc1)C(=O)OCc1ccccc1` (configuration not stated), the T/C reads like this: (endpoint: median survival time, dose: 200.0 mg/kg/injection, schedule: Q01DX009 (ip), vehicle: Klucel (hydroxypropylcellulose) (HPC)) 123 % of control and 96 % of control and 111 % of control; (endpoint: median survival time, dose: 400.0 mg/kg/injection, schedule: Q01DX009 (ip), vehicle: Klucel (hydroxypropylcellulose) (HPC)) 114 % of control.
Turning to `CC1CN1P(=O)(N1CC1C)N1CC1C` (configuration not stated), the T/C by setting is: (endpoint: mean survival time, dose: 9.5 mg/kg/injection, schedule: Q01DX001 (ip), vehicle: saline) 101 % of control; (endpoint: mean survival time, dose: 19.0 mg/kg/injection, schedule: Q01DX001 (ip), vehicle: saline) 106 % of control; (endpoint: mean survival time, dose: 38.0 mg/kg/injection, schedule: Q01DX001 (ip), vehicle: saline) 117 % of control.
`CCOC(=O)NC(=O)O`: the T/C by setting is: (endpoint: mean survival time, dose: 100.0 mg/kg/injection, schedule: Q01DX001 (ip), vehicle: saline) 114 % of control; (endpoint: mean survival time, dose: 200.0 mg/kg/injection, schedule: Q01DX001 (ip), vehicle: saline) 103 % of control; (endpoint: mean survival time, dose: 400.0 mg/kg/injection, schedule: Q01DX001 (ip), vehicle: saline) 97 % of control.
In the case of `NC1(C(=O)O)CCCC1`, the T/C under setting [6] is 98 % of control and 110 % of control; the T/C (endpoint: mean survival time, dose: 50.0 mg/kg/injection, schedule: Q03DX003 (ip), vehicle: saline) was 110 % of control; the T/C (endpoint: mean survival time, dose: 50.0 mg/kg/injection, schedule: Q04DX003 (ip), vehicle: saline) was 96 % of control; the T/C (endpoint: mean survival time, dose: 100.0 mg/kg/injection, schedule: Q03DX003 (ip), vehicle: saline) is 98 % of control; the T/C under setting [7] is 92 % of control and 110 % of control.
Regarding `CCCCCCCCCSCC`, the T/C by setting is: under setting [5], 100 % of control; under setting [8], 100 % of control; under setting [9], 88 % of control.
As to `Cc1cc[n+](CC(=O)CCc2ccc(C(=O)C[n+]3ccc(C)cc3)cc2)cc1`, the T/C reads like this: (endpoint: mean survival time, dose: 1.5 mg/kg/injection, schedule: Q04DX003 (ip), vehicle: saline) 100 % of control; (endpoint: mean survival time, dose: 3.0 mg/kg/injection, schedule: Q04DX003 (ip), vehicle: saline) 103 % of control; (endpoint: mean survival time, dose: 6.0 mg/kg/injection, schedule: Q04DX003 (ip), vehicle: saline) 95 % of control.
With `c1ccc(CCc2nc(-c3ccccc3)cc(-c3ccccc3)n2)cc1`, the T/C is 89 % of control under setting [10], 92 % of control under setting [11] and 87 % of control under setting [12].
For the compound `O=C(C=C(C(F)(F)F)C(F)(F)F)c1ccc(Br)cc1`, the T/C was 107 % of control (endpoint: mean survival time, dose: 12.5 mg/kg/injection, schedule: Q01DX009 (ip), vehicle: other); 110 % of control (endpoint: mean survival time, dose: 25.0 mg/kg/injection, schedule: Q01DX009 (ip), vehicle: other); 105 % of control (endpoint: mean survival time, dose: 100.0 mg/kg/injection, schedule: Q04DX003 (ip), vehicle: other).
For `O=S(=O)(O)O`, the T/C is, setting by setting: (endpoint: mean survival time, dose: 100.0 mg/kg/injection, schedule: Q01DX009 (ip), vehicle: saline sonified) 100 % of control; under setting [1], 96 % of control; (endpoint: mean survival time, dose: 200.0 mg/kg/injection, schedule: Q01DX009 (ip), vehicle: saline sonified) 97 % of control; (endpoint: mean survival time, dose: 400.0 mg/kg/injection, schedule: Q01DX009 (ip), vehicle: saline sonified) 97 % of control.
`O=S(=O)(OCC1CC2CCC1CC2)c1ccc(Br)cc1` (configuration not stated): the T/C under setting [5] was 96 % of control; the T/C under setting [1] was 95 % of control; the T/C under setting [8] was 112 % of control; the T/C under setting [2] was 97 % of control; the T/C under setting [9] was 102 % of control; the T/C under setting [3] is 95 % of control.
For `CCC(N)c1ccc2c3c(cccc13)CC2` (configuration not stated), the T/C reads like this: under setting [10], 89 % of control; under setting [11], 86 % of control; under setting [12], 89 % of control.
`OCC1OC(n2cnc3c(/C=C(/O)c4ccccc4)ncnc32)C(O)C1O` (configuration not stated): the T/C was 102 % of control (endpoint: mean survival time, dose: 12.5 mg/kg/injection, schedule: Q01DX005 (ip), vehicle: distilled water + Tween-80); 91 % of control (endpoint: mean survival time, dose: 25.0 mg/kg/injection, schedule: Q01DX005 (ip), vehicle: distilled water + Tween-80); 87 % of control (endpoint: mean survival time, dose: 50.0 mg/kg/injection, schedule: Q01DX005 (ip), vehicle: distilled water + Tween-80); 90 % of control (endpoint: mean survival time, dose: 100.0 mg/kg/injection, schedule: Q01DX005 (ip), vehicle: distilled water + Tween-80); 98 % of control (endpoint: mean survival time, dose: 200.0 mg/kg/injection, schedule: Q01DX005 (ip), vehicle: distilled water + Tween-80).
Regarding `CS(=O)(=O)OCCF`, the T/C runs as follows: (endpoint: mean survival time, dose: 1.5 mg/kg/injection, schedule: Q04DX003 (ip), vehicle: saline with Tween-80) 98 % of control; (endpoint: mean survival time, dose: 3.0 mg/kg/injection, schedule: Q04DX003 (ip), vehicle: saline with Tween-80) 98 % of control; (endpoint: mean survival time, dose: 6.0 mg/kg/injection, schedule: Q04DX003 (ip), vehicle: saline with Tween-80) 103 % of control.
With `O=C1NCC(C2CC2)(C2CC2)O1`, the T/C runs as follows: (endpoint: mean survival time, dose: 100.0 mg/kg/injection, schedule: Q04DX002 (ip), vehicle: saline with Tween-80) 108 % of control; (endpoint: mean survival time, dose: 200.0 mg/kg/injection, schedule: Q04DX002 (ip), vehicle: saline with Tween-80) 100 % of control; (endpoint: mean survival time, dose: 400.0 mg/kg/injection, schedule: Q04DX002 (ip), vehicle: saline with Tween-80) 100 % of control.
Consider `C/C(Cl)=C/C(=O)O.[Ag]`, for which, where the note is “endpoint: mean survival time, dose: 75.0 mg/kg/injection, schedule: Q01DX001 (ip), vehicle: saline”, the T/C was 93 % of control.
For the compound `Nc1ccc([N+](=O)[O-])c(S(=O)(=O)O)c1`, the T/C is, setting by setting: under setting [1], 95 % of control; under setting [2], 95 % of control; under setting [3], 89 % of control.
Consider `Cc1ccnc(NS(=O)(=O)c2ccc(N=Nc3nc4[nH]c(N)nc(=S)c4[nH]3)cc2)n1`, for which the T/C was 96 % of control (endpoint: mean survival time, dose: 0.2 mg/kg/injection, schedule: Q01DX009 (ip), vehicle: Klucel (hydroxypropylcellulose) (HPC)); 106 % of control (endpoint: mean survival time, dose: 0.4 mg/kg/injection, schedule: Q01DX009 (ip), vehicle: Klucel (hydroxypropylcellulose) (HPC)); 106 % of control (endpoint: mean survival time, dose: 0.8 mg/kg/injection, schedule: Q01DX009 (ip), vehicle: Klucel (hydroxypropylcellulose) (HPC)); 203 % of control (endpoint: mean survival time, dose: 1.56 mg/kg/injection, schedule: Q01DX009 (ip), vehicle: Klucel (hydroxypropylcellulose) (HPC)); 117 % of control (endpoint: mean survival time, dose: 1.6 mg/kg/injection, schedule: Q01DX009 (ip), vehicle: Klucel (hydroxypropylcellulose) (HPC)); 150 % of control (endpoint: mean survival time, dose: 3.13 mg/kg/injection, schedule: Q01DX009 (ip), vehicle: Klucel (hydroxypropylcellulose) (HPC)). Moreover, under “endpoint: mean survival time, dose: 6.25 mg/kg/injection, schedule: Q01DX009 (ip), vehicle: Klucel (hydroxypropylcellulose) (HPC)”, the T/C was 117 % of control.
In the case of `C/C=C/CNc1ccccc1`, the T/C is, setting by setting: under setting [6], 102 % of control; (endpoint: mean survival time, dose: 100.0 mg/kg/injection, schedule: Q01DX009 (ip), vehicle: saline) 101 % of control; under setting [1], 95 % of control; under setting [7], 96 % of control; under setting [2], 97 % of control.
Take `O=C(O/N=C(/CBr)c1ccccc1)c1ccccc1`: the T/C is, setting by setting: (endpoint: mean survival time, dose: 75.0 mg/kg/injection, schedule: Q01DX001 (ip), vehicle: other) 101 % of control; (endpoint: mean survival time, dose: 150.0 mg/kg/injection, schedule: Q01DX001 (ip), vehicle: other) 97 % of control; (endpoint: mean survival time, dose: 300.0 mg/kg/injection, schedule: Q01DX001 (ip), vehicle: other) 103 % of control.
